Source: US10336735B2, “Small molecule inhibitors of fibrosis” (THE CALIFORNIA INSTITUTE FOR BIOMEDICAL RESEARCH, priority 2014, dated 2019)

The molecules below were run on primary human lung fibroblasts and primary rodent HSCs (assay: High content imaging assay (α-SMA staining, cell morphology) of fibroblast to myofibroblast transdifferentiation, confirmed by Western blot and RT-PCR). Settings: Homo sapiens, Fibroblast; imaging and western based activity.
Source text: High content imaging assays have been established, using primary human lung fibroblasts and primary rodent HSCs, that enable the identification of small molecules that either inhibit myofibroblast formation/activation or induce the reversion of activated myofibroblasts to a quiescent fibroblast state. Conditions, involving serum starvation and subsequent TGF-β treatment, have been identified that facilitate robust in vitro transdifferentiation in a miniaturized (384 well plate) format that is amenable to high throughput small molecule screening. The inhibition assay is based on α-SMA immunofluorescent staining and cell morphology changes associated with fibroblast to myofibroblast transdifferentiation, Using the selective ALK-5 TGF-β1 receptor inhibitor ([…]) as a positive control, the inhibition assay has been used to initiate a screen of a collection of ˜100,000 small molecules that consists of bioactive small molecules and a diversity set that has been assembled based on 2D and 3D structural diversity and inherent “drug-likeness” properties. Preliminary screening led to the identification of multiple previously identified anti-fibrotic molecules.
A high content imaging assay, based on α-SMA staining and cell morphological changes associated with fibroblast to myofibroblast transdifferentiation, was established using primary human lung fibroblasts and primary rodent HSCs. Conditions, involving serum starvation and subsequent TGF-β treatment, were identified that facilitate robust in vitro transdifferentiation in a miniaturized (384 well plate) format that is amenable to high throughput small molecule screening. A selective ALK-5 TGF-β1 receptor inhibitor (SB-431542) was used as a positive control. […] This assay was used to evaluate compounds of Formula (I), (Ia), (II), (IIa), (III), (IIIa), (IV), (IVa), (IVb), (V), (Va), (VI), (VIa), (VIb), (VIc), (VII), (VIIa), (VIII), (VIIIa), (IX), (IXa), (X), or (Xa) generated from medicinal chemistry efforts.
The activity of Itraconazole and compounds of Formula (I), (Ia), (II), (IIa), (III), (IIIa), (IV), (IVa), (IVb), (V), (Va), (VI), (VIa), (VIb), (VIc), (VII), (VIIa), (VIII), (VIIIa), (IX), (IXa), (X), or (Xa) was confirmed by analyzing changes in gene expression of multiple genes associated with fibroblast to myofibroblast transdifferentiation using biochemical methods (i.e., Western blot and RT-PCR). These 4-day assays were used to evaluate sets of 6 compounds at a time in 4-point dose response fashion.
The EC50 for (imaging and western based) activity is graded as: +++=<500 nM; ++=500 nM to 5 μM; +=5 to 30 μM); −=>30 μM; NT=Not Tested.

Structure (SMILES) | EC50 [µM]
CCC(C)n1ncn(-c2ccc(N3CCN(c4ccc(OC[C@@H]5CO[C@@](Cn6nccn6)(c6ccc(Cl)cc6Cl)O5)nc4)CC3)cc2)c1=O (stereo partly shown) [Compound 54] | 0.5 to 5
CCC(C)n1ncn(-c2ccc(N3CCN(c4ccc(OC[C@@H]5CO[C@@](Cn6nccn6)(c6ccc(Cl)cc6Cl)O5)cc4CN)CC3)cc2)c1=O (stereo partly shown) [Compound 55] | < 0.5
CCC(C)n1ncn(-c2ccc(N3CCN(c4ccc(OC[C@@H]5CO[C@@](Cn6nccn6)(c6ccc(Cl)cc6Cl)O5)cc4C#N)CC3)cc2)c1=O (stereo partly shown) [Compound 56] | 0.5 to 5
CCC(C)n1ncn(-c2ccc(N3CCN(c4ccc(OC[C@@H]5CO[C@@](Cn6nccn6)(c6ccc(Cl)cc6Cl)O5)c(C#N)c4)CC3)cc2)c1=O (stereo partly shown) [Compound 57] | < 0.5
CCC(C)n1ncn(-c2ccc(N3CCN(c4ccc(OC[C@@H]5CO[C@@](Cn6nccn6)(c6ccccc6)O5)cc4F)CC3)cc2)c1=O (stereo partly shown) [Compound 58] | < 0.5
CCC(C)n1ncn(-c2ccc(N3CCN(c4ccc(OC[C@@H]5CO[C@@](Cn6nccn6)(c6ccccc6)O5)c(C(F)(F)F)c4)CC3)cc2)c1=O (stereo partly shown) [Compound 59] | 5 to 30
CCC(C)n1ncn(-c2ccc(N3CCN(c4ccc(OC[C@@H]5CO[C@@](Cn6nccn6)(c6ccccc6)O5)cc4C(F)(F)F)CC3)cc2)c1=O (stereo partly shown) [Compound 60] | 5 to 30
CCC(C)n1ncn(-c2ccc(N3CCN(c4cc(C)c(OC[C@@H]5CO[C@@](Cn6nccn6)(c6ccccc6)O5)c(C)c4)CC3)cc2)c1=O (stereo partly shown) [Compound 61] | 5 to 30
CCC(C)n1ncn(-c2ccc(N3CCN(c4cc(F)c(OC[C@@H]5CO[C@@](Cn6nccn6)(c6ccccc6)O5)c(F)c4)CC3)cc2)c1=O (stereo partly shown) [Compound 62] | 5 to 30
CCC(C)n1ncn(-c2ccc(N3CCN(c4ccc(OC[C@@H]5CO[C@@](Cn6nccn6)(c6ccccc6)O5)c(F)c4F)CC3)cc2)c1=O (stereo partly shown) [Compound 63] | 5 to 30
CCC(C)n1ncn(-c2ccc(N3CCN(c4ccc(OC[C@@H]5CO[C@@](Cn6nccn6)(c6ccccc6)O5)c(S(C)(=O)=O)c4)CC3)cc2)c1=O (stereo partly shown) [Compound 64] | 0.5 to 5
CCC(C)n1ncn(-c2ccc(N3CCN(c4ccc(OC[C@@H]5CO[C@@](Cn6nccn6)(c6ccccc6)O5)c(C#N)c4)CC3)cc2)c1=O (stereo partly shown) [Compound 65] | < 0.5
CCC(C)n1ncn(-c2ccc(N3CCN(c4ccc(OC[C@@H]5CO[C@@](Cn6nccn6)(c6ccccc6)O5)cc4C#N)CC3)cc2)c1=O (stereo partly shown) [Compound 66] | < 0.5
CCC(C)n1ncn(-c2ccc(N3CCN(c4ccc(OC[C@@H]5CO[C@@](Cn6nccn6)(c6ccccc6)O5)cc4CN)CC3)cc2)c1=O (stereo partly shown) [Compound 67] | 0.5 to 5
CCC(C)n1ncn(-c2ccc(N3CCN(c4ccc(OC[C@@H]5CO[C@@](Cn6nccn6)(c6ccccc6)O5)c(CN)c4)CC3)cc2)c1=O (stereo partly shown) [Compound 68] | < 0.5
CCC(C)n1ncn(-c2ccc(N3CCN(c4ccc(OC[C@@H]5CO[C@@](Cn6nccn6)(c6ccc(Cl)cc6Cl)O5)cc4)CC3)c(F)c2)c1=O (stereo partly shown) [Compound 69] | 0.5 to 5
CCC(C)n1ncn(-c2ccc(N3CCN(c4ccc(OC[C@@H]5CO[C@@](Cn6nccn6)(c6ccc(Cl)cc6Cl)O5)cc4)CC3)cc2F)c1=O (stereo partly shown) [Compound 70] | 0.5 to 5
CCC(C)n1ncn(-c2ccc(N3CCN(c4ccc(OC[C@@H]5CO[C@@](Cn6nccn6)(c6ccccc6)O5)cc4)CC3)c(C#N)c2)c1=O (stereo partly shown) [Compound 71] | 5 to 30
CCC(C)n1ncn(-c2ccc(N3CCN(c4ccc(OC[C@@H]5CO[C@@](Cn6nccn6)(c6ccccc6)O5)cc4)C(C)C3)cc2)c1=O (stereo partly shown) [Compound 72] | 5 to 30
CCC(C)n1ncn(-c2ccc(N3CCN(c4ccc(OC[C@@H]5CO[C@@](Cn6nccn6)(c6ccccc6)O5)cc4)CC3C)cc2)c1=O (stereo partly shown) [Compound 73] | 5 to 30

Structure (SMILES) | EC50 [µM]
CCC(C)n1ncn(-c2ccc(N3CCCN(c4ccc(OC[C@@H]5CO[C@@](Cn6nccn6)(c6ccc(Cl)cc6Cl)O5)cc4)CC3)cc2)c1=O (stereo partly shown) [Compound 74] | 0.5 to 5
CCC(C)n1ncn(-c2ccc(N3CCN(c4ccc(OC[C@@H]5CO[C@@](Cn6nccn6)(c6ccc(Cl)cc6Cl)O5)cc4)CC3)cc2)c1=S (stereo partly shown) [Compound 75] | > 30
CCC(C)n1ncn(-c2cccc(N3CCN(c4ccc(OC[C@@H]5CO[C@@](Cn6nccn6)(c6ccc(Cl)cc6Cl)O5)cc4)CC3)c2)c1=O (stereo partly shown) [Compound 77] | > 30
CCC(C)n1ncn(-c2ccc(N3CCN(c4cccc(OC[C@@H]5CO[C@@](Cn6nccn6)(c6ccc(Cl)cc6Cl)O5)c4)CC3)cc2)c1=O (stereo partly shown) [Compound 78] | 0.5 to 5
CCC(C)n1ncn(-c2ccc(N3CCN(c4ccccc4OC[C@@H]4CO[C@@](Cn5nccn5)(c5ccc(Cl)cc5Cl)O4)CC3)cc2)c1=O (stereo partly shown) [Compound 79] | > 30
CCC(C)n1ncn(-c2ccc(N3CCN(c4ccc(OC[C@@H]5CO[C@@](Cn6cccn6)(c6cc(Cl)cc(Cl)c6)O5)cc4)CC3)cc2)c1=O (stereo partly shown) [Compound 80] | 0.5 to 5
CCC(C)n1ncn(-c2ccc(N3CCN(c4ccc(OC[C@@H]5CO[C@@](Cn6cccn6)(c6ccc(Cl)cc6)O5)cc4)CC3)cc2)c1=O (stereo partly shown) [Compound 81] | < 0.5
CCC(C)n1ncn(-c2ccc(N3CCN(c4ccc(OC[C@@H]5CO[C@@](Cn6cccn6)(c6cccc(Cl)c6)O5)cc4)CC3)cc2)c1=O (stereo partly shown) [Compound 82] | < 0.5
CCC(C)n1ncn(-c2ccc(N3CCN(c4ccc(OC[C@@H]5CO[C@@](Cn6cccn6)(c6ccccc6Cl)O5)cc4)CC3)cc2)c1=O (stereo partly shown) [Compound 83] | < 0.5
CCC(C)n1ncn(-c2ccc(N3CCN(c4ccc(OC[C@@H]5CO[C@@](Cn6cccn6)(c6ccc(Cl)c(Cl)c6)O5)cc4)CC3)cc2)c1=O (stereo partly shown) [Compound 84] | 0.5 to 5
CCC(C)n1ncn(-c2ccc(N3CCN(c4ccc(OC[C@@H]5CO[C@@](Cn6cccn6)(c6ccccc6OC)O5)cc4)CC3)cc2)c1=O (stereo partly shown) [Compound 85] | 0.5 to 5
CCC(C)n1ncn(-c2ccc(N3CCN(c4ccc(OC[C@@H]5CO[C@@](Cn6cccn6)(c6cccc(OC)c6)O5)cc4)CC3)cc2)c1=O (stereo partly shown) [Compound 86] | < 0.5
CCC(C)n1ncn(-c2ccc(N3CCN(c4ccc(OC[C@@H]5CO[C@@](Cn6cccn6)(c6ccc(OC)cc6)O5)cc4)CC3)cc2)c1=O (stereo partly shown) [Compound 87] | < 0.5
CCC(C)n1ncn(-c2ccc(N3CCN(c4ccc(OC[C@@H]5CO[C@@](Cn6cccn6)(c6cccc(C#N)c6)O5)cc4)CC3)cc2)c1=O (stereo partly shown) [Compound 88] | 0.5 to 5
CCC(C)n1ncn(-c2ccc(N3CCN(c4ccc(OC[C@@H]5CO[C@@](Cn6cccn6)(c6ccc(C#N)cc6)O5)cc4)CC3)cc2)c1=O (stereo partly shown) [Compound 89] | 0.5 to 5
CCC(C)n1ncn(-c2ccc(N3CCN(c4ccc(OC[C@@H]5CO[C@@](Cn6cccn6)(c6ccccc6C#N)O5)cc4)CC3)cc2)c1=O (stereo partly shown) [Compound 90] | 0.5 to 5
CCC(C)n1ncn(-c2ccc(N3CCN(c4ccc(OC[C@@H]5CO[C@@](Cn6cccn6)(c6ccccc6C(F)(F)F)O5)cc4)CC3)cc2)c1=O (stereo partly shown) [Compound 91] | < 0.5
CCC(C)n1ncn(-c2ccc(N3CCN(c4ccc(OC[C@@H]5CO[C@@](Cn6cccn6)(c6cccc(C(F)(F)F)c6)O5)cc4)CC3)cc2)c1=O (stereo partly shown) [Compound 92] | < 0.5
CCC(C)n1ncn(-c2ccc(N3CCN(c4ccc(OC[C@@H]5CO[C@@](Cn6cccn6)(c6ccc(C(F)(F)F)cc6)O5)cc4)CC3)cc2)c1=O (stereo partly shown) [Compound 93] | < 0.5
CCC(C)n1ncn(-c2ccc(N3CCN(c4ccc(OC[C@@H]5CO[C@@](Cn6cccn6)(c6ccc(OC(F)(F)F)cc6)O5)cc4)CC3)cc2)c1=O (stereo partly shown) [Compound 94] | < 0.5
